From patent publication US20150119394A1, “Insulin-Like Growth Factor-1 Receptor Inhibitors” (Merck Sharp & Dohme Corp., priority 2012, published 2015)
Blank lines part the entries; values can stand above or below the compound they belong to.

How the values were obtained:
[1] = Oral absorption in Swiss mice; type: in vivo; settings: 10 mg/kg p.o.; for Cmax / half-life / AUC(0-inf): male, mouse, plasma, po; for AUC(0-inf): read-out: AUC0-infinity
Method: Oral absorption of different compounds was ascertained in Swiss mice. The procedure followed was as detailed below:
Species: Swiss mice, overnight fasted state
Sex and weight: Male, in the weight range of 25-30 g
Number of animals: 18 animals divided into six groups (n=3) and bled as follows:
Formulation: Compound suspended in 0.5% carboxymethylcellulose or 0.25% methylcellulose
Blood (250 μL) is collected from the retro-orbital sinus at designated time points from each mouse using heparinized bleeding capillaries into micro-centrifuge tubes containing 5 μL EDTA (200 mM) as anticoagulant. Plasma is separated by centrifugation at 10000 rpm for 5 min and samples stored at −70° C. until bioanalysis.
On the day of analysis, plasma samples are thawed at room temperature. An aliquot (100 μL) of each plasma sample is spiked individually with 10 μL of internal standard. The samples are then vortexed for 10 seconds followed by addition of 1 mL of extraction solvent and vortexed for 5 minutes. The samples are then centrifuged at 10000 rpm for 5 minutes at 4° C. Supernatants (800 μL) are removed and transferred to glass tubes and evaporated to dryness under nitrogen. The dried residues are reconstituted using 100 μL of 90:10% v/v acetonitrile:MilliQ water. The reconstituted samples are vortexed, centrifuged and injected into LC-MS/MS for analysis. The calibration curve is prepared in the range of 0.5 to 5000 ng/mL in mouse plasma for quantitation.

[2] = target: T1, intracellular kinase domain of human IGF-1R (GST fusion protein) (Homo sapiens, UniProt P08069); test: In vitro IGF-1R kinase assay (HTRF); type: biochemical; settings: ATP 20 μM, IGFRK 0.25 nM
T1 construct: IGFRK and IRK enzyme used for the assay was intracellular kinase domain of human IGF-1R; GST; made in house

[3] = test system: A673 (Ewing's Sarcoma) cancer cell line; test: Anti-proliferative assay (MTS / CCK-8); type: cell-based
Method: Anti-proliferative potential of compounds was tested using various cell lines (details provided in Table 2) by MTS (Promega, Cat # G1111), a tetrazolium compound ((3-(4,5-dimethylthiazol-2-yl)-5-(3-carboxymethoxyphenyl)-2-(4-sulphophenyl)-2Htetrazolium, inner salt; MTS) and Cell Counting kit-8 (CCK-8 a Dojindo's highly watersoluble tetrazolium salt of WST-8 [2-(2-methoxy-4-nitrophenyl)-3-(4-nitrophenyl)-5-(2,4-disulfophenyl)-2H-tetrazolium, monosodium salt]). MTS is a colorimetric assay for determining the number of viable cells in proliferation, cytotoxicity or chemosensitivity assays. This is used with an electron coupling reagent PMS (Phenazine methosulfate). MTS is bioreduced by cells into a formazan that is soluble in tissue culture medium. The absorbance of the formazan at 490 nm can be measured directly from 96 well assay plates without additional processing. Dehydrogenase enzymes found in metabolically active cells accomplish the conversion of MTS into the aqueous soluble formazan. The quantity of formazan product is directly proportional to the number of living cells in culture. In CCK-8, WST-8 is reduced by dehydrogenases in cells to give a yellow colored product formazan, which is measured at 450 nm.
For experimental purposes, cells were seeded at a density of 3000-5000 cells per well in 180 μL/well volume in transparent 96 well tissue culture plate (NUNC, USA) and incubated overnight at 37° C., 5% CO2. Next day before adding compound the medium was replaced and 180 μL, of fresh medium added with the 100 ng/mL IGF without FCS followed by addition of 20 μL of 10× compound (10 mM stock made in DMSO and then further dilutions were made in medium, final DMSO concentration should not exceed 0.5%) and incubated for 72 hours in humidified 5% CO2 incubator at 37±1° C. After incubation medium was replaced with 200 μL of medium containing 20 μL MTS reagent per well. Plates were incubated for 3-4 hours and absorbance was measured at 490 nm on Spectrophotometer (SpectraMax, Molecular Devices). Percentage cytotoxicity and IC50 was calculated using SoftMax software. CCK-8 was used for suspension cell lines. Cell seeding and compound addition was done on same day. Following the incubation, 10 μL of CCK-8 solution was added in each well. After 4 hour incubation, the absorbance was determined at 450 nm using Spectrophotometer (SpectraMax, Molecular Devices). In every experiment, each condition was run in triplicate wells.

T1 sequence (P08069 999-1274 limits assumed): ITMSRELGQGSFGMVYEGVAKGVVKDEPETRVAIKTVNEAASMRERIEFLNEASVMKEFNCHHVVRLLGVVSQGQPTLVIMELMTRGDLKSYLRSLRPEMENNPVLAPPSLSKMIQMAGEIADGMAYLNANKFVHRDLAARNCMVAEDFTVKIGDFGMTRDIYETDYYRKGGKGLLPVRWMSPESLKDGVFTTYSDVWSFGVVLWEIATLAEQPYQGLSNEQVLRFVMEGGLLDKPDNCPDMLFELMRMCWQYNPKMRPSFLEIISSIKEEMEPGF

SMILES: NC(=O)c1[nH]c2ccc(Cl)cc2c1S(=O)(=O)N1CCO[C@H](COc2ccc(-c3ccnc(Cl)c3)cc2)C1 [Compound 84, (S)-5-chloro-3-((2-((4-(2-chloropyridin-4-yl)phenoxy)methyl)morpholino)sulfonyl)-1H-indole-2-carboxamide]
- AUC as compared to compound 999 [1]: higher
- Cmax as compared to compound 999 [1]: higher
- Cmax [1]: 1240 nM
- half-life [1]: 78 min
- AUC(0-inf) [1]: 2200 ng·h/mL
- IC50 [2]: 18.5 nM

SMILES: COc1ccc(-c2cccc(OC[C@@H]3CN(S(=O)(=O)c4c(C(N)=O)[nH]c5ccc(Cl)cc45)CCO3)c2)cn1 [Compound 7, (S)-5-chloro-3-((2-((3-(6-methoxypyridin-3-yl)phenoxy)methyl)morpholino)sulfonyl)-1H-indole-2-carboxamide]
- anti-proliferative activity as compared to compound 999 ([3]; Ewing's Sarcoma cell line): higher
- IC50 ([3]; Homo sapiens, A673 (Ewing's Sarcoma), 72 hours, 100 ng/mL IGF, read-out: Anti-proliferation IC50): 0.6 nM
- AUC as compared to compound 999 [1]: higher
- Cmax as compared to compound 999 [1]: higher
- Cmax [1]: 2200 nM
- half-life [1]: 54 min
- AUC(0-inf) [1]: 1940 ng·h/mL
- IC50 [2]: 15.1 nM

SMILES: NC(=O)c1[nH]c2ccc(Cl)cc2c1S(=O)(=O)N1CCO[C@H](COc2ccc(-c3ccncc3)cc2)C1 [Compound 32, (S)-5-chloro-3-((2-((4-(pyridin-4-yl)phenoxy)methyl)morpholino)sulfonyl)-1H-indole-2-carboxamide]
- AUC as compared to compound 999 [1]: higher
- Cmax as compared to compound 999 [1]: higher
- Cmax [1]: 2780 nM
- half-life [1]: 168 min
- AUC(0-inf) [1]: 3190 ng·h/mL
- IC50 [2]: 3.5 nM

SMILES: NC(=O)c1[nH]c2ccc(Cl)cc2c1S(=O)(=O)N1CCO[C@H](COc2cccc(-c3cccnc3F)c2)C1 [Compound 3, (S)-5-chloro-3-((2-((3-(2-fluoropyridin-3-yl)phenoxy)methyl)morpholino)sulfonyl)-1H-indole-2-carboxamide]
- AUC as compared to compound 999 [1]: higher
- Cmax as compared to compound 999 [1]: higher
- Cmax [1]: 2980 nM
- half-life [1]: 276 min
- AUC(0-inf) [1]: 1960 ng·h/mL
- IC50 [2]: 31.2 nM

SMILES: NC(=O)c1[nH]c2ccc(Cl)cc2c1S(=O)(=O)N1CCO[C@H](COc2cccc(-c3ccccn3)c2)C1 [Compound 15, (S)-5-chloro-3-((2-((3-(pyridin-2-yl)phenoxy)methyl)morpholino)sulfonyl)-1H-indole-2-carboxamide]
- IC50 [2]: 3.7 nM

SMILES: COc1ccc(-c2ccccc2OC[C@@H]2CN(S(=O)(=O)c3c(C(N)=O)[nH]c4ccc(Cl)cc34)CCO2)cn1 [Compound 61, (S)-5-chloro-3-((2-((2-(6-methoxypyridin-3-yl)phenoxy)methyl)morpholino)sulfonyl)-1H-indole-2-carboxamide]
- IC50 [2]: > 1000 nM

SMILES: Cc1cc(OC[C@@H]2CN(S(=O)(=O)c3c(C(N)=O)[nH]c4ccc(Cl)cc34)CCO2)ccc1-c1cncnc1 [Compound 71, (S)-5-chloro-3-((2-((3-methyl-4-(pyrimidin-5-yl)phenoxy)methyl)morpholino)sulfonyl)-1H-indole-2-carboxamide]
- IC50 [2]: 5.3 nM

SMILES: COc1ccccc1-c1cc(OC[C@@H]2CN(S(=O)(=O)c3c(C(N)=O)[nH]c4ccc(Cl)cc34)CCO2)ccc1C [Compound 23, (S)-5-chloro-3-((2-(((2′-methoxy-6-methyl-[1,1′-biphenyl]-3-yl)oxy)methyl)morpholino)sulfonyl)-1H-indole-2-carboxamide]
- IC50 [2]: 132 nM

SMILES: NC(=O)c1[nH]c2ccc(Cl)cc2c1S(=O)(=O)N1CCO[C@H](COc2cccc(-c3ccc(F)nc3)c2)C1 [Compound 8, (S)-5-chloro-3-((2-((3-(6-fluoropyridin-3-yl)phenoxy)methyl)morpholino)sulfonyl)-1H-indole-2-carboxamide]
- IC50 [2]: 15.5 nM

SMILES: Cc1cc(OC[C@@H]2CN(S(=O)(=O)c3c(C(N)=O)[nH]c4ccc(Cl)cc34)CCO2)ccc1-c1cccnc1F [Compound 68, (S)-5-chloro-3-((2-((4-(2-fluoropyridin-3-yl)-3-methylphenoxy)methyl)morpholino)sulfonyl)-1H-indole-2-carboxamide]
- IC50 [2]: 37.9 nM

SMILES: COc1ncc(-c2cccc(OC[C@@H]3CN(S(=O)(=O)c4c(C(N)=O)[nH]c5ccc(Cl)cc45)CCO3)c2)cn1 [Compound 16, (S)-5-chloro-3-((2-((3-(2-methoxypyrimidin-5-yl)phenoxy)methyl)morpholino)sulfonyl)-1H-indole-2-carboxamide]
- IC50 [2]: 2 nM

SMILES: NC(=O)c1[nH]c2ccc(Cl)cc2c1S(=O)(=O)N1CCO[C@H](COc2cccc(-c3ccc(C(F)(F)F)nc3)c2)C1 [Compound 6, (S)-5-chloro-3-((2-((3-(6-(trifluoromethyl)pyridin-3-yl)phenoxy)methyl)morpholino)sulfonyl)-1H-indole-2-carboxamide]
- IC50 [2]: 65 nM

SMILES: NC(=O)c1[nH]c2ccc(Cl)cc2c1S(=O)(=O)N1CCO[C@H](COc2ccccc2-c2ccncc2)C1 [Compound 56, (S)-5-chloro-3-((2-((2-(pyridin-4-yl)phenoxy)methyl)morpholino)sulfonyl)-1H-indole-2-carboxamide]
- IC50 [2]: > 1000 nM

Continued, values first:

- IC50 [2]: 30.4 nM
SMILES: CN(C)c1ccc(-c2cccc(OC[C@@H]3CN(S(=O)(=O)c4c(C(N)=O)[nH]c5ccc(Cl)cc45)CCO3)c2)cn1 [Compound 5, (S)-5-chloro-3-((2-((3-(6-(dimethylamino)pyridin-3-yl)phenoxy)methyl)morpholino)sulfonyl)-1H-indole-2-carboxamide]

- IC50 [2]: 4.9 nM
SMILES: NC(=O)c1[nH]c2ccc(Cl)cc2c1S(=O)(=O)N1CCO[C@H](COc2cccc(-c3ccc(Cl)nc3)c2)C1 [Compound 86, (S)-5-chloro-3-((2-((3-(6-chloropyridin-3-yl)phenoxy)methyl)morpholino)sulfonyl)-1H-indole-2-carboxamide]

- IC50 [2]: 166 nM
SMILES: COc1ccc(-c2ccc(OC[C@@H]3CN(S(=O)(=O)c4c(C(N)=O)[nH]c5ccc(Cl)cc45)CCO3)cc2)cn1 [Compound 37, (S)-5-chloro-3-((2-((4-(6-methoxypyridin-3-yl)phenoxy)methyl)morpholino)sulfonyl)-1H-indole-2-carboxamide]

- IC50 [2]: > 1000 nM
SMILES: NC(=O)c1[nH]c2ccc(Cl)cc2c1S(=O)(=O)N1CCO[C@H](COc2ccc(-c3ccc(C(F)(F)F)nc3)cc2)C1 [Compound 35, (S)-5-chloro-3-((2-((4-(6-(trffluoromethyl)pyridin-3-yl)phenoxy)methyl)morpholino)sulfonyl)-1H-indole-2-carboxamide]

- IC50 [2]: > 1000 nM
SMILES: NC(=O)c1[nH]c2ccc(Cl)cc2c1S(=O)(=O)N1CCO[C@H](COc2cncc(-c3ccccc3F)c2)C1 [Compound 78]

- IC50 [2]: 199 nM
SMILES: Cc1ccccc1-c1cccc(OC[C@@H]2CN(S(=O)(=O)c3c(C(N)=O)[nH]c4ccc(Cl)cc34)CCO2)c1 [Compound 10, (S)-5-chloro-3-((2-(((2′-methyl-[1,1′-biphenyl]-3-yl)oxy)methyl)morpholino)sulfonyl)-1H-indole-2-carboxamide]

- IC50 [2]: 9.7 nM
SMILES: NC(=O)c1[nH]c2ccc(Cl)cc2c1S(=O)(=O)N1CCO[C@H](COc2cccc(-c3ccnc(Cl)c3)c2)C1 [Compound 85, (S)-5-chloro-3-((2-((3-(2-chloropyridin-4-yl)phenoxy)methyl)morpholino)sulfonyl)-1H-indole-2-carboxamide]
